{"source": "patent US4774248A", "about": "“Methods of treating depression and depressive states using 5-phenyl-1,4,5,6-tetrahydropyrimidine derivatives” (priority 1985, dated 1988)", "key": {"mice [1]": {"test_system": "mice", "assay": "Overall behavior and reactivities in mice", "format": "in vivo", "settings": "i.p.", "procedure": "(§1) The results of toxicological and neuropsychopharmacological tests which were carried out with the products according to the invention have been summarized below. In these tests, solutions of the said products in distilled water were administered intraperitoneally in a volume of 20 ml/kg to male mice and in a volume of 5 ml/kg to male rats.\n(§2) Groups of 3 animals are observed before and then 0.25 h, 0.50 h, 1 h, 2 h, 3 h and 24 h after the administration of CRL 41 378. The following observations are made:\n(§3) Groups of 3 animals are observed before and then 0.25 h, 0.50 h, 1 h, 2 h, 3 h and 24 h after the administration of CRL 41 329."}, "rats": {"test_system": "rats", "assay": "Overall behavior and reactivities in rats", "format": "in vivo", "settings": "i.p.", "procedure": "as §1, §2, §3"}, "[2]": {"test_system": "hypothermia, righting behavior and stereotypies induced by apomorphine", "assay": "Interaction with apomorphine in mice", "format": "in vivo", "settings": "i.p.", "procedure": "as §1\nCRL 41 378 is administered to groups of 6 mice 30 minutes before the subcutaneous injection of 1 or 16 mg/kg of apomorphine."}, "male mice": {"test_system": "male mice", "assay": "Acute toxicity, intraperitoneal (LD0, LD30, LD60, LD100)", "format": "in vivo", "procedure": "as §1"}, "[3]": {"assay": "Acute toxicity, intraperitoneal (LD0, LD30, LD60, LD100)", "format": "in vivo", "settings": "mouse, in vivo, ip; 128 mg/kg i.p., male mice; read-out: death 24 h after administration", "procedure": "as §1"}, "mice [4]": {"test_system": "mice", "assay": "Motility reduced by hypoxic aggression (acute hypobaric anoxia)", "format": "in vivo", "settings": "i.p.", "procedure": "In these tests, solutions of the said products in distilled water were administered intraperitoneally in a volume of 20 ml/kg to male mice and in a volume of 5 ml/kg to male rats."}, "mice [5]": {"test_system": "mice", "assay": "Spontaneous motility (actimeter)", "format": "in vivo", "settings": "i.p.", "procedure": "as §1\n0.5 h after they have received CRL 41 378, the mice (6 per dose, 12 control animals) are placed in an actimeter, where their motility is recorded for 30 minutes."}, "mice [6]": {"test_system": "mice", "assay": "Electric shock", "format": "in vivo", "settings": "i.p.", "procedure": "as §1\nThe test is performed on groups of 10 mice 30 minutes after the administration of CRL 41 378."}, "[7]": {"test_system": "hypothermia and ptosis induced by reserpine", "assay": "Interaction with reserpine", "format": "in vivo", "settings": "mice, i.p.; reserpine 2.5 mg/kg", "procedure": "as §1\nFour hours after the intraperitoneal injection of 2.5 mg/kg of reserpine, groups of 12 mice receive CRL 41 378."}, "[8]": {"test_system": "hypothermia, trembling and peripheral cholinergic symptoms induced by oxotremorine", "assay": "Interaction with oxotremorine", "format": "in vivo", "settings": "mice, i.p.; oxotremorine 0.5 mg/kg", "procedure": "as §1\nCRL 41 378 is administered to groups of 6 mice 0.5 h before the intraperitoneal injection of 0.5 mg/kg of oxotremorine."}, "[9]": {"test_system": "stereotypies induced by apomorphine", "assay": "Interaction with apomorphine in rats", "format": "in vivo", "settings": "i.p., apomorphine 0.5 mg/kg s.c.", "procedure": "as §1\nCRL 41 378 is administered to groups of 12 rats 0.5 h before the subcutaneous injection of 0.5 mg/kg of apomorphine."}, "mice [10]": {"test_system": "mice", "assay": "Intergroup aggressiveness", "format": "in vivo", "settings": "mice, i.p.", "procedure": "as §1\nAfter they have stayed for 3 weeks in the two halves of a cage divided by an opaque partition, groups of 3 mice receive CRL 41 378. Half an hour later, the two groups from the same cage are brought together by removal of the partition and the number of fights which occur in 10 minutes is noted."}, "[11]": {"test_system": "central nervous system (CNS)", "assay": "Neuropsychopharmacological profile (conclusions of the tests)", "format": "in vivo, mice and rats", "settings": "i.p.", "procedure": "as §1"}}, "note": "“Also recorded” adds a separate entry of the source.", "data": [{"smiles": "Cl.Clc1ccc(C2CN=CNC2)cc1", "note": "(stereo not drawn) [CRL 41 336, 5-(4-chlorophenyl)-1,4,5,6-tetrahydropyrimidine hydrochloride]", "values": [{"measurement": "moderate hypothermia", "setting": "mice [1]; 32 mg/kg, from 1 to 3 hours", "result": -1.3, "unit": "°C"}, {"measurement": "overall behavior and reactivities", "setting": "mice [1]; 32 mg/kg, hydrochloride", "result": "sedation for 0.25 h; also recorded: a decrease in the breathing rate from 1 to 3 hours; also recorded: moderate hypothermia; also recorded: vasodilation of the ears and tail from 0.5 h to 3 h"}, {"measurement": "overall behavior and reactivities", "setting": "mice [1]; 0.5 to 8 mg/kg", "result": "no distinct modification of the behavior and reactivities"}, {"measurement": "overall behavior and reactivities", "setting": "rats; 4 mg/kg", "result": "mydriasis for 2 hours (maximum 0.5 h after administration)"}, {"measurement": "overall behavior and reactivities", "setting": "rats; 16 mg/kg, hydrochloride", "result": "sedation for 3 h; also recorded: a decrease in the breathing rate for 3 h; also recorded: mydriasis for 3 h (with its maximum intensity 0.5 h after administration); also recorded: piloerection for 1 h; also recorded: vasodilation (of the paws) for 2 h"}, {"measurement": "overall behavior and reactivities", "setting": "rats; 0.25 and 1 mg/kg", "result": "behavior, reactivities and variations in rectal temperature and pupil diameter which are substantially comparable to those of the animals in the control group"}, {"measurement": "action on hypothermia induced by apomorphine", "setting": "[2]", "result": "distinct antagonism of the hypothermia induced by apomorphine and oxotremorine"}, {"measurement": "action on righting behavior and stereotypies due to apomorphine", "setting": "[2]", "result": "decreases the stereotypies induced by apomorphine in rats and mice"}, {"measurement": "toxic signs in the animals treated", "setting": "male mice; 64 mg/kg i.p.", "result": "all the animals treated exhibit sedation and a decrease in the breathing rate"}, {"measurement": "toxic signs in the animals treated", "setting": "male mice; 128 mg/kg i.p.", "result": "the animals exhibit sedation and a decrease in the breathing rate"}, {"measurement": "LD0 (maximum non-lethal dose)", "setting": "male mice; intraperitoneal", "result": "greater than 64 mg/kg"}, {"measurement": "LD60", "setting": "male mice; intraperitoneal", "result": "about 128 mg/kg"}, {"measurement": "LD100 (minimum dose lethal to all the animals)", "setting": "male mice; intraperitoneal", "result": "200 to 210", "unit": "mg/kg"}, {"measurement": "mortality at 24 h", "setting": "[3]", "result": 60, "unit": "%"}, {"measurement": "motor recovery after acute hypobaric hypoxia", "setting": "mice [4]", "result": "a decrease in the motility after acute hypobaric hypoxia"}, {"measurement": "spontaneous motor activity", "setting": "mice [5]", "result": "a decrease in the spontaneous motor activity"}, {"measurement": "lethal effects of electric shock", "setting": "mice [6]", "result": "aggravation of the lethal effect of electric shock"}, {"measurement": "action on hypothermia induced by reserpine", "setting": "[7]", "result": "more moderate antagonism of the hypothermia induced by reserpine"}, {"measurement": "action on hypothermia induced by oxotremorine", "setting": "[8]", "result": "distinct antagonism of the hypothermia induced by apomorphine and oxotremorine"}, {"measurement": "action on stereotypies induced by apomorphine", "setting": "[9]", "result": "decreases the stereotypies induced by apomorphine in rats and mice"}, {"measurement": "intergroup aggressiveness (number of fights)", "setting": "mice [10]", "result": "a decrease in the intergroup aggressiveness in mice"}, {"measurement": "antidepressant effects", "setting": "[11]", "result": "antidepressant effects"}, {"measurement": "peripheral α-adrenergic stimulant effects", "setting": "[11]", "result": "peripheral α-adrenergic stimulant effects appearing at high doses, especially as mydriasis and piloerection in rats"}, {"measurement": "sedative effects", "setting": "[11]; hydrochloride", "result": "sedation in mice and rats; also recorded: hypothermia (transient) in mice"}]}]}
